Reference: patent US8383578B2, “Peptides, derivatives and analogs thereof, and methods of using same” (CureDM Group Holdings, LLC, priority 2005, dated 2013)
“Also recorded” adds a separate entry of the source.

Assays:
type 1 patients = details: cited from earlier work
[1] = dosages up to 10,000 IU/day; cited from earlier work
diabetic patients = details: cited from earlier work
[2] = system: human pancreatic ductal tissue culture; test: Insulin production in human pancreatic ductal tissue culture, radioimmunoassay; format: cell-based; details: 3.3 μM (final culture concentration of 165 nM)
Protocol: (§1) Human pancreatic islet and progenitor fractions were cultured over 10 days, according to standard protocol. Briefly, pancreata from adult human cadaveric organ donors were obtained through the local organ procurement organization. Islets were isolated according to established protocols described by Bonner-Weir and Jamal. (Bonner-Weir et al., Pediatric Diabetes: 2004; 5(Suppl 2):16-22. Jamal et al., Cell Death Differ. 2005 July; 12(7):702-12).
(§2) Following removal of the organ, cold ischemia time was no more than 8 hours prior to islet isolation. The main pancreatic duct was cannulated and perfused with Liberase HI (Roche Diagnostics). The perfused organ was placed in a closed system (Ricordi Apparatus) and heated to 37° C. to activate the enzyme blend. Following the appearance of free islets in samples, the system was cooled and free tissues were collected and washed. Tissues were applied to a continuous density gradient created using Ficoll (Biochrom KG) in a cell processor (COBE). Free islets with diameters ranging from 75 to 400 μm, determined to be greater than 90% pure by staining with dithizone (Sigma) a zinc chelater, were collected and washed. IHC to detect the presence of amylase and cytokeratin was negative, consistent with the absence of progenitor and exocrine tissue. The progenitor fraction from this separation was also collected for culture.
(§3) Isolated islets were embedded in a type 1 collagen matrix at a density of 2000 islet equivalents/25 cm^2 and cultured in DMEM/F12 containing 10% FBS, 1 μM dexamethasone, 10 ng/ml EGF, 24 mU/ml insulin and 100 ng/ml cholera toxin. Medium was changed every other day. On day 10, culture was continued in the above medium, without the cholera toxin, with neogenic agents and inhibitors at the final concentrations listed below. Medium was changed every other day. Collagen-embedded cultures were harvested by incubating with 0.25 g/L collagenase XI (Sigma) for 30 minutes at 37° C. […]
(§4) Insulin levels were detected by Radioimmunoassay (RIA) from cultures treated with saline only, scrambled peptide, SEQ ID NOs: 7, 3 or 2 and hamster INGAP. […]

[3] = system: human pancreatic islet tissue; test: Insulin production in human pancreatic islet tissue culture, radioimmunoassay; format: cell-based; details: 1 mM for a final culture concentration of 500 nM
Protocol: as §1, §2, §3, §4

[4] = system: human pancreatic ductal tissue cultures; test: Insulin production in human pancreatic ductal tissue cultures, ELISA; format: cell-based; details: for insulin production vs Peptide 4 (hamster INGAP) and Peptide 5 (scrambled) (FIG. 4): after 10 days, Rosenberg protocol, samples 5 μg total protein in duplicate; for insulin production vs hamster INGAP and scrambled control (FIG. 7A): two concentrations of peptide (3 μM and 1 mM)
Protocol: (§5) Human pancreatic tissue was treated as described in Example 1 and Insulin production was measured by ELISA assay. FIGS. 4 and 5 show the results of this experiment to show a dose response and to again compare the effect of HIP on the two different fractions of tissue as compared to the hamster INGAP sequence and a scrambled negative peptide sequence. […] The results in FIG. 4 involve the use of 5 μg of each peptide, while the results in FIG. 5 were acquired using 0.002 μg of each peptide.

[5] = system: human pancreatic islet tissue cultures; test: Insulin production in human pancreatic islet tissue cultures, ELISA; format: cell-based; details: for insulin production vs Peptide 4 (hamster INGAP) and Peptide 5 (scrambled) (FIG. 5): after 10 days, Rosenberg protocol, 0.002 μg of each peptide in duplicate; for insulin production vs hamster INGAP and scrambled control (FIG. 7B): two concentrations of peptide (3 μM and 1 mM)
Protocol: as §5

[6] = system: human pancreatic progenitor cells; test: Islet generation in human ductal tissue culture, inverted microscopy; format: cell-based; details: ductal/progenitor tissue fraction culture treated with HIP; listed as HIP
Protocol: A human ductal tissue fraction was isolated and cultured as described in Example 1. After 10 days of culture, cells were treated with HIP for four days and observed using inverted microscopy. […] Islets have formed what has previously been described as ductal epithelial cysts and are starting to bud at one end where a progenitor cell resides. […] In this panel the darkening of the budding portion of the ductal epithelial cyst indicates the differentiation of cells consistent with previously shown changes that occur with hamster INGAP treatment in vitro.

NOD mice = test: HIP treatment of non-obese diabetic (NOD) mice; format: in vivo, mouse; details: HIP 1 μg/kg/day to 100 mg/kg/day, protocol example
Text: Animal Model. The non-obese diabetic (NOD) mouse strain has long been studied as an excellent model of type 1 diabetes because it spontaneously develops a disease that is very similar to the human condition. Delovitch, T. L., and Singh, B. 1997. Immunity. 7:727-738. Diabetes in NOD mice is mediated by inflammatory autoreactive T cells that recognize pancreatic islet antigens and escape central and peripheral tolerance.
Procedure: In a parental colony of NOD mice, incidence of diabetes in female NOD mice is typically 75-90% by 30 weeks but may exceed 90% in some cohorts. […] Doses of HIP range from 1 μg/kg/day to 100 mg/kg/day.
Treatment. Cohorts are treated in 2 arms with 2-4 dose ranges of HIP and a placebo, at a compensated dose for animal size, metabolism and circulation, or about 1/6 the mg/kg equivalence. Arm 1: saline, Arm 2: HIP.
Study Assessment. Blood glucose levels are measured every week with a One Touch II glucose meter (Lifescan). Mice are considered diabetic after 2 consecutive measurements over 300 mg/dl. For histological analysis, pancreases are snap-frozen. Multiple 5-μm sections are stained with hematoxylin and eosin and scored blindly for severity of insulitis as known in the art.

## CC[C@H](C)[C@H](NC(=O)[C@@H]1CCCN1C(=O)CNC(=O)[C@H](Cc1ccccc1)NC(=O)[C@H](CC(N)=O)NC(=O)[C@H](CC(N)=O)NC(=O)[C@H](CO)NC(=O)[C@H](CO)NC(=O)[C@H](Cc1c[nH]cn1)NC(=O)[C@@H](NC(=O)[C@H](CC(C)C)NC(=O)[C@H](Cc1ccccc1)NC(=O)[C@H](CC(N)=O)NC(=O)[C@H](C)NC(=O)[C@H](CC(C)C)NC(=O)[C@H](CCCNC(=N)N)NC(=O)[C@H](CCC(N)=O)NC(=O)[C@@H](NC(=O)[C@H](C)NC(=O)[C@@H]1CSSC[C@H](NC(=O)[C@@H](N)CCCCN)C(=O)N[C@@H](CC(N)=O)C(=O)N[C@@H]([C@@H](C)O)C(=O)N[C@@H](C)C(=O)N[C@@H]([C@@H](C)O)C(=O)N1)[C@@H](C)O)C(C)C)C(=O)N[C@@H](CC(C)C)C(=O)N1CCC[C@H]1C(=O)N1CCC[C@H]1C(=O)N[C@H](C(=O)N[C@@H](CC(N)=O)C(=O)N[C@H](C(=O)NCC(=O)N[C@@H](CO)C(=O)N[C@@H](CC(N)=O)C(=O)N[C@H](C(=O)N[C@@H](Cc1ccc(O)cc1)C(N)=O)[C@@H](C)O)C(C)C)[C@@H](C)O [Pramlintide]
Type 1 patients
  glycemic excursions and pre-meal insulin requirements: reduce glycemic excursions

## C=C1CC[C@H](O)C/C1=C/C=C1\CCC[C@]2(C)[C@@H]([C@H](C)CCCC(C)C)CC[C@@H]12 [Vitamin D, cholecalciferol]
[1]
  adverse effects: No adverse effects

## IGLHDPSHGTLPNGS (listed as Hamster sp.) [hamster INGAP]
Diabetic patients; 300 mg/day treatment group, Phase II study
  patients with a >50% increase in GAD65 antibody titers: 22%
Diabetic patients; 600 mg/day
  C-peptide secretion: increase
Diabetic patients; Phase II trial
  effectiveness: Little effectiveness
Diabetic patients; human, in vivo
  patient drop out due to discomfort and bruising at injection site: high drop out
  tolerability: well tolerated
Diabetic patients; type 2 diabetes patients
  hemoglobin A1C: fell

## IGLHDPTQGTEPNG (listed as Homo sapiens) [HIP2]
[2]
  insulin production vs INGAP peptide and scrambled negative control (FIG. 1): increased insulin production
[3]
  insulin production vs INGAP peptide and scrambled negative control (FIG. 2): increased insulin production
[4]
  insulin production vs Peptide 4 (hamster INGAP) and Peptide 5 (scrambled) (FIG. 4): increased insulin production
  insulin production vs hamster INGAP and scrambled control (FIG. 7A): increased insulin production
[5]
  insulin production vs Peptide 4 (hamster INGAP) and Peptide 5 (scrambled) (FIG. 5): increased insulin production
  insulin production vs hamster INGAP and scrambled control (FIG. 7B): increased insulin production

## IGLHDPTQGTEPNGE (listed as Homo sapiens) [HIP3]
[2]
  insulin production vs INGAP peptide and scrambled negative control (FIG. 1): increased insulin production
[3]
  insulin production vs INGAP peptide and scrambled negative control (FIG. 2): increased insulin production
[4]
  insulin production vs Peptide 4 (hamster INGAP) and Peptide 5 (scrambled) (FIG. 4): increased insulin production
  insulin production vs hamster INGAP and scrambled control (FIG. 7A): increased insulin production
[5]
  insulin production vs Peptide 4 (hamster INGAP) and Peptide 5 (scrambled) (FIG. 5): increased insulin production
  insulin production vs hamster INGAP and scrambled control (FIG. 7B): increased insulin production
[6]
  new islet structure formation in culture (micrographs): Morphological changes show islet like structure; also recorded: New islet structure has formed; also recorded: forming a nidus of new insulin producing islets; also recorded: forming insulin producing islet like structure
NOD mice
  blood glucose levels: pronounced reduction
  insulitis in pancreases (histology): decreased showing of insulinitis

## WIGLHDPTQGTEPNG [HIP1]
[2]
  insulin production vs INGAP peptide and scrambled negative control (FIG. 1): increased insulin production
[3]
  insulin production vs INGAP peptide and scrambled negative control (FIG. 2): increased insulin production
[4]
  insulin production vs Peptide 4 (hamster INGAP) and Peptide 5 (scrambled) (FIG. 4): increased insulin production
  insulin production vs hamster INGAP and scrambled control (FIG. 7A): increased insulin production
[5]
  insulin production vs Peptide 4 (hamster INGAP) and Peptide 5 (scrambled) (FIG. 5): increased insulin production
  insulin production vs hamster INGAP and scrambled control (FIG. 7B): increased insulin production
